Results reported in US12565500B2, “Substituted pyrrolo[1,2-b]pyridazines and pyrrolo[2,1-f][1,2,4]triazines as Btk inhibitors” (BIOGEN MA INC., priority 2019, dated 2026).

How the values were obtained:
[1] = tested on: CD69 expression on CD19+ B cells in human whole blood; assay: In Vitro whole blood CD69 Assay; assay type: cell-based; conditions: B-cell, human heparinized whole blood, anti-human IgD stimulation
Protocol: In Vitro whole blood CD69 Assay
Human heparinized venous blood from health donors was aliquoted into 96-well plate and “spiked” with serial dilutions of formula I compounds in DMSO or with DMSO without drug. The final concentration of DMSO in all wells was 0.1%. The plate was incubated at 37° C. for 30 min. Drug-containing samples were stimulated with 0.1 μg/mL mouse anti-human IgD-dextran (1A^62) or 20 μg/mL polyclonal rabbit F(ab′)2 anti-human IgD. Phosphate-buffered saline (PBS) was added to the negative control unstimulated sample and the plates were incubated overnight (18 to 22 hours) at 37° C. Cells were stained with fluorochrome-conjugated anti-CD19 and anti-CD69 antibodies. Lyse/fix solution was used to remove red blood cells by hypotonic lysis and to fix the remaining cells, which were then analyzed by flow cytometry. CD19+ B cells were gated and analyzed for CD69 expression. The percentage of B cells expressing CD69 was plotted versus the log 10 of the concentration of the drug and the best-fit curves (variable Hill slope) were generated to obtain the IC50 value.

BTK = BTK (Homo sapiens (Human), UniProt Q06187); assay: In Vitro BTK Kinase Assay: Btk-PolyGAT-LS Assay; assay type: biochemical; conditions: ATP 10 μM, polyGAT 100 nM, BTK 0.25 nM
Chain of BTK (Q06187 whole entry): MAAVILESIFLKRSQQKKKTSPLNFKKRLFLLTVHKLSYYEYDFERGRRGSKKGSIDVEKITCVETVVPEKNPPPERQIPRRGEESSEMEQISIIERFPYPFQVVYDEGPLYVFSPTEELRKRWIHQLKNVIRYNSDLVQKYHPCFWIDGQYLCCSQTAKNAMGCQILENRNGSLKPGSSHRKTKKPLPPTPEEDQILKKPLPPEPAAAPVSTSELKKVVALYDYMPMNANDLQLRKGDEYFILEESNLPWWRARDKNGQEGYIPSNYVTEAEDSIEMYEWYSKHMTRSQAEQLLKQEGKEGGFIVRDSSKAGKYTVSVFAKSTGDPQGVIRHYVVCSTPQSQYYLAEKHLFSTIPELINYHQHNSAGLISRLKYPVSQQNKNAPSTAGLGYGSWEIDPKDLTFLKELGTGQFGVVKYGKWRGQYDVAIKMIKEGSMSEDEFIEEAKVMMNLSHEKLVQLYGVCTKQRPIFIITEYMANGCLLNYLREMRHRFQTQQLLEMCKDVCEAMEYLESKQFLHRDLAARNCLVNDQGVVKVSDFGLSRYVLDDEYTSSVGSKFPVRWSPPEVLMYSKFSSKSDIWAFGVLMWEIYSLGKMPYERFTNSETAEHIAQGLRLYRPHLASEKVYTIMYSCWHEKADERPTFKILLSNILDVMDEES
Protocol: In Vitro BTK Kinase Assay: Btk-PolyGAT-LS Assay
The purpose of the BTK in vitro assay is to determine compound potency against BTK through the measurement of IC50. Compound inhibition is measured after monitoring the amount of phosphorylation of a fluorescein-labeled polyGAT peptide (Invitrogen PV3611) in the presence of active BTK enzyme (Upstate 14-552), ATP, and inhibitor. The BTK kinase reaction was done in a black 96 well plate (costar 3694). For a typical assay, a […] aliquot of a ATP/peptide master mix (final concentration; ATP 10 μM, polyGAT 100 nM) in kinase buffer (10 mM Tris-HCl pH 7.5, 10 mM MgCl2, 200 μM Na3PO4, 5 mM DTT, 0.01% Triton X-100, and 0.2 mg/ml casein) is added to each well. Next, […] of a 4-fold, 40× compound titration in 100% DMSO solvent is added, followed by adding 15 uL of BTK enzyme mix in 1× kinase buffer (with a final concentration of 0.25 nM). The assay is incubated for 30 minutes before being stopped with […] of a 50 mM EDTA solution. Aliquots (5 uL) of the kinase reaction are transferred to a low volume white 384 well plate (Coming 3674), and 5 pL of a 2× detection buffer (Invitrogen PV3574, with 4 nM Tb-PY20 antibody, Invitrogen PV3552) is added. The plate is covered and incubated for 45 minutes at room temperature. Time resolved fluorescence (TRF) on Molecular Devices M5 (332 nm excitation; 488 nm emission; 518 nm fluorescein emission) is measured. IC50 values are calculated using a four parameter fit with 100% enzyme activity determined from the DMSO control and 0% activity from the EDTA control.
“†” represents an IC50 of greater than 1 μM and equal to or less than 10 μM. “††” represents an IC50 of greater than 10 nM and equal to or less than 1 μM (10 nM<IC50≤1 μM). “†††” represents an IC50 of greater than 1 nM and equal to or less than 10 nM (1 nM<IC50≤10 nM).

Compound | IC50 [1] | IC50 (BTK)
Cc1cc(-c2ncnn3cccc23)ccc1CN1CCNC(C)C1=O (stereo not shown) [Compound 1, 3-methyl-1-(2-methyl-4-(pyrrolo[2,1-f][1,2,4]triazin-4-yl)benzyl)piperazin-2-one] | ≥ 10 µM | 1 to 10 µM
Cc1cc(-c2ncnn3cccc23)ccc1CN1CCN(CC(C)C)C(C)C1=O (stereo not shown) [Compound 2, 4-isobutyl-3-methyl-1-(2-methyl-4-(pyrrolo[2,1-f][1,2,4]triazin-4-yl)benzyl)piperazin-2-one] | ≥ 10 µM | 0.01 to 1 µM
Cc1cc(-c2ncnn3cccc23)ccc1CN1CCN(C2CC(F)(F)C2)C(C)C1=O (stereo not shown) [Compound 3, 4-(3,3-difluorocyclobutyl)-3-methyl-1-(2-methyl-4-(pyrrolo[2,1-f][1,2,4]triazin-4-yl)benzyl)piperazin-2-one] |  | 1 to 10 µM
Cc1cc(-c2ncnn3cc(-c4cnn(C)c4)cc23)ccc1CN1CCN(CC(C)C)C(C)C1=O (stereo not shown) [Compound 4, 4-isobutyl-3-methyl-1-(2-methyl-4-(6-(1-methyl-1H-pyrazol-4-yl)pyrrolo[2,1-f][1,2,4]triazin-4-yl)benzyl)piperazin-2-one] | ≥ 10 µM | 0.001 to 0.01 µM
